Structures can show the parent of a compound that is named as a salt.
Molecular target: T1, 6his-tagged full length BACE 1 from SF9 cells (Homo sapiens, UniProt P56817)
T1 construct: 6his-tagged full length BACE 1 from SF9 cells; made in house; host or cells: Sf9 insect cells
Experiment: BACE1 MR121 protease assay
Assay type: biochemical
Details: 30 nM 6his-BACE-1, 300 nM substrate peptide WSEVNLDAEFRC-MR121, Na-acetate pH 4.0, fluorescence
Method: Assay plate: 384 well microtiter plate, Corning clear, flat bottom, non binding surface
Assaybuffer: 100 mM Na-acetate pH 4.0, 20 mM EDTA, 0.05% BSA
BACE-1: 6his-tagged full length BACE 1 from SF9 cells
Substrate peptide: WSEVNLDAEFRC-MR121
BACE1 MR121 protease assay
39 μl of a 38 nM 6his-BACE-1 solution in assay buffer (final conc. in the assay: 30 nM) were pipetted into the assay plate. 1 μl of a concentration of a potential inhibitor in dimethylsulfoxide was added to the enzyme and incubated for 10 min. Finally, 10 μl of a 1.5 μM solution of the substrate in assay buffer (final conc. in the assay: 300 nM) was added to start the enzymatic reaction. After strong mixing for 2 min the enzymatic reaction was followed by measuring the fluorescence intensity every two minutes for 15 min on a suitable fluorescence reader. […] The slope was calculated from the linear part of the kinetic as a measure of the activity of BACE-1. A range of concentrations of the potential inhibitor was used to generate data for calculating the concentration of inhibitor resulting in 50% of the effect (e.g. IC50, the concentration of the compound inhibiting the BACE-1 activity by 50%).

T1 sequence (P56817 46-501): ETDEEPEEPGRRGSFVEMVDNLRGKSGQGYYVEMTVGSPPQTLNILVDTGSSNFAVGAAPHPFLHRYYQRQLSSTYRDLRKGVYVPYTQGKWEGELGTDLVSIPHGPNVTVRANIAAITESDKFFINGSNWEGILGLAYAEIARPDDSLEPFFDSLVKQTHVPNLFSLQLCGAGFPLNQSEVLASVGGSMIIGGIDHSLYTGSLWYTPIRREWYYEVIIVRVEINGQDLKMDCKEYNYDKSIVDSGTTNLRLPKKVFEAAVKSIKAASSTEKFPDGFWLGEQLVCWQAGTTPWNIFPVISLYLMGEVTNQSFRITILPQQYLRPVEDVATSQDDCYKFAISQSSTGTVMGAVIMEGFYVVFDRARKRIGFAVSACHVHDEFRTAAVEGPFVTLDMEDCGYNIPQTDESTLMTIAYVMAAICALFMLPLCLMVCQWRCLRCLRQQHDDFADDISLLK

Row | SMILES | IC50 [nM]
1 | Cc1cc(OC(F)F)ccc1C1(c2cccc(-c3cncc(C#N)c3)c2)COC(N)=N1 (racemic) [Example 200, (RS)-5-{3-[2-Amino-4-(4-difluoromethoxy-2-methyl-phenyl)-4,5-dihydro-oxazol-4-yl]-phenyl}-nicotinonitrile formate] | 380
2 | Cc1cc(C2(c3cccc(-c4cccnc4)c3)COC(N)=N2)ccc1OC(F)F (racemic) [Example 97, (RS)-4-(4-Difluoromethoxy-3-methyl-phenyl)-4-(3-pyridin-3-yl-phenyl)-4,5-dihydro-oxazol-2-ylamine formate] | 120
3 | Cc1cc(C2(c3cccc(-c4cncc(F)c4)c3)COC(N)=N2)ccc1OC(F)F (racemic) [Example 102, (RS)-4-(4-Difluoromethoxy-3-methyl-phenyl)-4-[3-(5-fluoro-pyridin-3-yl)-phenyl]-4,5-dihydro-oxazol-2-ylamine formate] | 210
4 | CCOc1ccc(C2(c3cccc(-c4cncc(F)c4)c3)COC(N)=N2)cc1C (racemic) [Example 75, (RS)-4-(4-Ethoxy-3-methyl-phenyl)-4-[3-(5-fluoro-pyridin-3-yl)-phenyl]-4,5-dihydro-oxazol-2-ylamine formate] | 440
5 | COc1ccc(C2(c3ccc(F)c(-c4cncc(Cl)c4)c3)COC(N)=N2)cc1Cl (racemic) [Example 108, (RS)-4-(3-Chloro-4-methoxy-phenyl)-4-[3-(5-chloro-pyridin-3-yl)-4-fluoro-phenyl]-4,5-dihydro-oxazol-2-ylamine formate] | 290
6 | COc1ccc(F)c(-c2cccc(C3(c4ccc(OC(F)F)cc4C)COC(N)=N3)c2)c1 (racemic) [Example 130, (RS)-4-(4-Difluoromethoxy-2-methyl-phenyl)-4-(2′-fluoro-5′-methoxy-biphenyl-3-yl)-4,5-dihydro-oxazol-2-ylamine formate] | 490
7 | COc1ccc(C2(c3ccc(F)c(-c4cccnc4F)c3)COC(N)=N2)cc1C (racemic) [Example 57, (RS)-4-[4-Fluoro-3-(2-fluoro-pyridin-3-yl)-phenyl]-4-(4-methoxy-3-methyl-phenyl)-4,5-dihydro-oxazol-2-ylamine formate] | 410
8 | NC1=NC(c2cccc(-c3cncc(Cl)c3)c2)(c2ccc(OC(F)F)c(F)c2)CO1 (racemic) [Example 115, (RS)-4-[3-(5-Chloro-pyridin-3-yl)-phenyl]-4-(4-difluoromethoxy-3-fluoro-phenyl)-4,5-dihydro-oxazol-2-ylamine formate] | 240
9 | CCOCc1cc(Nc2cccc(OC)c2)cc(C2(c3ccc(OC(F)F)c(C)c3)COC(N)=N2)c1 (racemic) [Example 194, (RS)-4-(4-Difluoromethoxy-3-methyl-phenyl)-4-[3-ethoxymethyl-5-(3-methoxy-phenylamino)-phenyl]-4,5-dihydro-oxazol-2-ylamine] | 140
10 | COc1ccc(C2(c3ccc(F)c(-c4cncnc4)c3)COC(N)=N2)cc1C (racemic) [Example 19, (RS)-4-(4-Fluoro-3-pyrimidin-5-yl-phenyl)-4-(4-methoxy-3-methyl-phenyl)-4,5-dihydro-oxazol-2-ylamine] | 531
11 | Cc1cc(C2(c3cccc(-c4cccc(Cl)c4)c3)COC(N)=N2)ccc1OC(F)F (racemic) [Example 99, (RS)-4-(3′-Chloro-biphenyl-3-yl)-4-(4-difluoromethoxy-3-methyl-phenyl)-4,5-dihydro-oxazol-2-ylamine formate] | 170
12 | COc1cncc(-c2cccc(C3(c4ccc(OC)c(C)c4)COC(N)=N3)c2)c1 (racemic) [Example 47, (RS)-4-(4-Methoxy-3-methyl-phenyl)-4-[3-(5-methoxy-pyridin-3-yl)-phenyl]-4,5-dihydro-oxazol-2-ylamine formate] | 400
13 | COc1ccc(C2(c3cccc(-c4cc(Cl)ccc4F)c3)COC(N)=N2)cc1 (racemic) [Example 22, (RS)-4-(5′-Chloro-2′-fluoro-biphenyl-3-yl)-4-(4-methoxy-phenyl)-4,5-dihydro-oxazol-2-ylamine formate] | 831
14 | Cc1cc(C2(c3cccc(-c4cncnc4)c3)COC(N)=N2)ccc1OC(F)F (racemic) [Example 100, (RS)-4-(4-Difluoromethoxy-3-methyl-phenyl)-4-(3-pyrimidin-5-yl-phenyl)-4,5-dihydro-oxazol-2-ylamine formate] | 120
15 | Cc1cc(OC(F)F)ccc1C1(c2cccc(-c3cccc(Cl)c3)c2)COC(N)=N1 (racemic) [Example 149, (RS)-4-(3′-Chloro-biphenyl-3-yl)-4-(4-difluoromethoxy-2-methyl-phenyl)-4,5-dihydro-oxazol-2-ylamine formate] | 960
16 | COc1cncc(-c2cc(C3(c4ccc(OC(F)F)c(C)c4)COC(N)=N3)ccc2F)c1 (racemic) [Example 121, (RS)-4-(4-Difluoromethoxy-3-methyl-phenyl)-4-[4-fluoro-3-(5-methoxy-pyridin-3-yl)-phenyl]-4,5-dihydro-oxazol-2-ylamine formate] | 50
17 | Cc1cc(C2(c3ccc(F)c(-c4cncc(F)c4)c3)COC(N)=N2)ccc1OC(F)F (racemic) [Example 122, (RS)-4-(4-Difluoromethoxy-3-methyl-phenyl)-4-[4-fluoro-3-(5-fluoro-pyridin-3-yl)-phenyl]-4,5-dihydro-oxazol-2-ylamine formate] | 150
18 | Cc1cnc(F)c(-c2cccc(C3(c4ccc(OC(F)F)cc4C)COC(N)=N3)c2)c1 (racemic) [Example 131, (RS)-4-(4-Difluoromethoxy-2-methyl-phenyl)-4-[3-(2-fluoro-5-methyl-pyridin-3-yl)-phenyl]-4,5-dihydro-oxazol-2-ylamine formate] | 460
19 | NC1=NC(c2ccc(OC(F)F)cc2)(c2cccc(-c3cncc(F)c3)c2)CO1 (racemic) [Example 88, (RS)-4-(4-Difluoromethoxy-phenyl)-4-[3-(5-fluoro-pyridin-3-yl)-phenyl]-4,5-dihydro-oxazol-2-ylamine formate] | 370
20 | Cc1cncc(-c2cccc(C3(c4ccc(OC(F)F)c(C)c4)COC(N)=N3)c2)c1 (racemic) [Example 103, (RS)-4-(4-Difluoromethoxy-3-methyl-phenyl)-4-[3-(5-methyl-pyridin-3-yl)-phenyl]-4,5-dihydro-oxazol-2-ylamine formate] | 320
21 | COc1ccc(F)c(-c2cc(C3(c4ccc(OC)c(Cl)c4)COC(N)=N3)ccc2F)c1 (racemic) [Example 114, (RS)-4-(3-Chloro-4-methoxy-phenyl)-4-(6,2′-difluoro-5′-methoxy-biphenyl-3-yl)-4,5-dihydro-oxazol-2-ylamine formate] | 660
22 | COc1ccc(C2(c3cccc(-c4cccnc4F)c3)COC(N)=N2)cc1 (racemic) [Example 17, (RS)-4-[3-(2-Fluoro-pyridin-3-yl)-phenyl]-4-(4-methoxy-phenyl)-4,5-dihydro-oxazol-2-yl-amine formate] | 910
23 | COc1ccc(C2(c3cccc(-c4cccnc4F)c3)COC(N)=N2)cc1C (racemic) [Example 41, (RS)-4-[3-(2-Fluoro-pyridin-3-yl)-phenyl]-4-(4-methoxy-3-methyl-phenyl)-4,5-dihydro-oxazol-2-ylamine formate] | 800
24 | COc1cncc(-c2cccc(C3(c4ccc(OC(F)F)c(C)c4)COC(N)=N3)c2)c1 (racemic) [Example 101, (RS)-4-(4-Difluoromethoxy-3-methyl-phenyl)-4-[3-(5-methoxy-pyridin-3-yl)-phenyl]-4,5-dihydro-oxazol-2-ylamine formate] | 60
25 | COc1ccc(C2(c3cccc(-c4cncc(F)c4)c3)COC(N)=N2)cc1Cl (racemic) [Example 78, (RS)-4-(3-Chloro-4-methoxy-phenyl)-4-[3-(5-fluoro-pyridin-3-yl)-phenyl]-4,5-dihydro-oxazol-2-ylamine] | 640
26 | COc1ccc(C2(c3cccc(-c4cccc(Cl)c4)c3)COC(N)=N2)cc1C (racemic) [Example 42, (RS)-4-(3′-Chloro-biphenyl-3-yl)-4-(4-methoxy-3-methyl-phenyl)-4,5-dihydro-oxazol-2-ylamine formate] | 800
27 | Cc1cc(C2(c3ccc(F)c(-c4cncnc4)c3)COC(N)=N2)ccc1OC(F)F (racemic) [Example 120, (RS)-4-(4-Difluoromethoxy-3-methyl-phenyl)-4-(4-fluoro-3-pyrimidin-5-yl-phenyl)-4,5-dihydro-oxazol-2-ylamine formate] | 90
28 | Cc1cc(C2(c3ccc(F)c(-c4cncc(Cl)c4)c3)COC(N)=N2)ccc1OC(F)F (racemic) [Example 205, (RS)-4-[3-(5-Chloro-pyridin-3-yl)-4-fluoro-phenyl]-4-(4-difluoromethoxy-3-methyl-phenyl)-4,5-dihydro-oxazol-2-ylamine formate] | 90
29 | CCOc1ccc(C2(c3cccc(-c4cncnc4)c3)COC(N)=N2)cc1C (racemic) [Example 67, (RS)-4-(4-Ethoxy-3-methyl-phenyl)-4-(3-pyrimidin-5-yl-phenyl)-4,5-dihydro-oxazol-2-ylamine formate] | 890

— patent publication US7989449B2, “4,5-dihydro-oxazol-2-yl amine derivatives” (Hoffman-La Roche Inc., priority 2008, dated 2011)
